# From US20260325605A1, “INHIBITORS” (Zealand Pharma A/S, priority 2022, published 2026)
# pIC50: −log10 of the molar value.
# How the values were obtained:
# [1] = test system: KLH-induced DTH ear swelling in rats; assay: Example 10: Maximal effective dose in KLH-induced DTH model; assay type: in vivo, rat (Lewis)
# Procedure: (§1) Healthy male Lewis rats aged 8-9 weeks were immunized on day 0 with 200 μL keyhole limpet hemocyanin (KLH) (from Sigma, cat.no. H7017) (4 mg/mL) emulsified in complete Freund's adjuvant (CFA) (Difco, cat.no. 263810) subcutaneously (SC) at the base of the tail.
# (§2) To elicit a KLH-specific T cell-mediated local inflammation, rats were challenged intradermally at indicated timepoints (days 7, 9, 11 or 13 post-immunisation) with 40 μL KLH/NaCl 0.9% (2 mg/mL) in the left ear. Ear edemas were measured after 24-48 hrs and the right ear that was left untreated served as control. A schematic overview of the protocol is depicted in FIG. 1. […]
# (§3) This study was conducted as described in example 8 with the difference that the rats were only challenged intradermally at days 7 or 11 post-immunisation (i.e. day 1 and day 5 after treatment) with 40 μL KLH/NaCl 0.9% (2 mg/mL) in the left ear. A schematic overview of the protocol is depicted in FIG. 5.
# The doses of Kv1.3 inhibitor treatment able to reduce the DTH ear swelling response was investigated by comparing the response in rats (n=8/group) treated with vehicle to that of rats treated with different doses of peptide 100. Vehicle or peptide 100 dissolved in vehicle was administered SC (2 mL/kg) on day 6 post-immunisation. The test dose of Kv1.3 inhibitor was 10, 100, 300 or 700 nmol/kg. Test vehicle was 10 mM phosphate, 0.8% w/v NaCl, 0.05% w/v polysorbate20, pH 6.
# As readout of efficacy, the thickness of the induced ear 24 hrs and 48 hrs after respective ear challenge was measured and compared to vehicle control. Ear thickness 24 hrs after challenge is shown in Table 13 and FIG. 6 and ear thickness 48 hrs after challenge is shown in Table 14 and FIG. 7.
# [2] = test system: KLH-induced DTH ear swelling in rats; assay: Example 11: Minimal effective dose in KLH-induced DTH model; assay type: in vivo, rat (Lewis)
# Procedure: as §1, §2, §3
# The doses of Kv1.3 inhibitor treatment able to reduce the DTH ear swelling response was investigated by comparing the response in rats (n=8/group) treated with vehicle to that of rats treated with different doses of peptide 100. Vehicle or peptide 100 dissolved in vehicle was administered SC (2 mL/kg) on day 6. The test dose of Kv1.3 inhibitor was 1, 3, 10, 30 or 100 nmol/kg. Test vehicle was 10 mM phosphate, 0.8% w/v NaCl, 0.05% w/v polysorbate20, pH 6.
# As readout of efficacy, the thickness of the induced ear 24 hrs and 48 hrs after respective ear challenge was measured and compared to vehicle control. Ear thickness 24 hrs after challenge is shown in Table 15 and FIG. 8 and ear thickness 48 hrs after challenge is shown in Table 16 and FIG. 9.
# [3] = test system: T-cell activation in rat whole blood; assay: Example 4: IL-17A release in thapsigargin stimulated rat whole blood; assay type: cell-based, rat (Lewis or Sprague-Dawley); conditions: 24 Hr, at least 2 replicates, unit inferred, read-out: IC50 (inhibition of IL-17A release)
# In short: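 Heparinised whole blood from naïve Lewis or Sprague-Dawley rats preincubated ≥5 min at RT with peptide, then stimulated with thapsigargin (40 μM stock added as one quarter of well volume) for 24 h at 37 °C. Supernatant IL-17A measured by ELISA; IC50 from curves normalised to stimulated and unstimulated controls, ≥2 replicates.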
# [4] = 24 hrs post-challenge, day 2 post-treatment, 100 nmol/kg SC
# [5] = 24 hrs post-challenge, day 6 post-treatment, 10 nmol/kg SC
# [6] = 24 hrs post-challenge, day 6 post-treatment, 100 nmol/kg SC
# [7] = 48 hrs post-challenge, day 3 post-treatment, 100 nmol/kg SC
# [8] = 48 hrs post-challenge, day 7 post-treatment, 10 nmol/kg SC
# [9] = 48 hrs post-challenge, day 7 post-treatment, 100 nmol/kg SC
substance,measurement,setting,value
H-P[Nle]E[Nle]RC(1)SASVEC(2)KQKC(3)LAAIGSIFGKC(1)[Nle]NKKC(2)KC(3)YPR-OH [Peptide 100],Mean ear thickness of KLH-induced ear,"[1]; 10 nmol/kg s.c., challenge day 11, 24 hrs post-challenge, vehicle 0.848, p=0.0495",0.807±0.025 mm
same,Mean ear thickness of KLH-induced ear,"[1]; 10 nmol/kg s.c., challenge day 11, 48 hrs post-challenge, vehicle 0.819, p=0.0009",0.761±0.025 mm
same,Mean ear thickness of KLH-induced ear,"[1]; 100 nmol/kg s.c., challenge day 11, 24 hrs post-challenge, vehicle 0.848, p=0.0015",0.777±0.019 mm
same,Mean ear thickness of KLH-induced ear,"[1]; 100 nmol/kg s.c., challenge day 11, 48 hrs post-challenge, vehicle 0.819, p<0.0001",0.713±0.034 mm
same,Mean ear thickness of KLH-induced ear,"[1]; 300 nmol/kg s.c., challenge day 11, 24 hrs post-challenge, vehicle 0.848, p=0.0005",0.772±0.009 mm
same,Mean ear thickness of KLH-induced ear,"[1]; 300 nmol/kg s.c., challenge day 11, 48 hrs post-challenge, vehicle 0.819, p<0.0001",0.684±0.016 mm
same,Mean ear thickness of KLH-induced ear,"[1]; 700 nmol/kg s.c., challenge day 11, 24 hrs post-challenge, vehicle 0.848, p=0.0007",0.771±0.018 mm
same,Mean ear thickness of KLH-induced ear,"[1]; 700 nmol/kg s.c., challenge day 11, 48 hrs post-challenge, vehicle 0.819, p<0.0001",0.671±0.011 mm
same,Mean ear thickness of KLH-induced ear,[1]; [4],0.704 mm
same,Mean ear thickness of KLH-induced ear,[1]; [5],0.807 mm
same,Mean ear thickness of KLH-induced ear,[1]; [6],0.777 mm
same,Mean ear thickness of KLH-induced ear,"[1]; 24 hrs post-challenge, day 6 post-treatment, 300 nmol/kg SC",0.772 mm
same,Mean ear thickness of KLH-induced ear,"[1]; 24 hrs post-challenge, day 6 post-treatment, 700 nmol/kg SC",0.771 mm
same,Mean ear thickness of KLH-induced ear,[1]; [7],0.652 mm
same,Mean ear thickness of KLH-induced ear,[1]; [8],0.761 mm
same,Mean ear thickness of KLH-induced ear,[1]; [9],0.713 mm
same,Mean ear thickness of KLH-induced ear,"[1]; 48 hrs post-challenge, day 7 post-treatment, 300 nmol/kg SC",0.684 mm
same,Mean ear thickness of KLH-induced ear,"[1]; 48 hrs post-challenge, day 7 post-treatment, 700 nmol/kg SC",0.671 mm
same,dose with which a maximal effect is obtained,"[1]; KLH-induced DTH model, s.c.",300 nmol/kg
same,Mean ear thickness of KLH-induced ear,"[1]; s.c. day 6, dose not given, challenge day 7, 24 hrs post-challenge, vehicle 0.721, p=0.1216",0.704±0.018 mm
same,Mean ear thickness of KLH-induced ear,"[1]; s.c. day 6, dose not given, challenge day 7, 48 hrs post-challenge, vehicle 0.694, p=0.0008",0.652±0.026 mm
same,Mean ear thickness of KLH-induced ear,"[2]; 1 nmol/kg s.c., challenge day 11, 24 hrs post-challenge, vehicle 0.902, p=0.0872",0.872±0.037 mm
same,Mean ear thickness of KLH-induced ear,"[2]; 1 nmol/kg s.c., challenge day 11, 48 hrs post-challenge, vehicle 0.876, p=0.1953",0.854±0.038 mm
same,Mean ear thickness of KLH-induced ear,"[2]; 3 nmol/kg s.c., challenge day 11, 24 hrs post-challenge, vehicle 0.902, p<0.0001",0.814±0.014 mm
same,Mean ear thickness of KLH-induced ear,"[2]; 3 nmol/kg s.c., challenge day 11, 48 hrs post-challenge, vehicle 0.876, p=0.0001",0.814±0.019 mm
same,Mean ear thickness of KLH-induced ear,"[2]; 10 nmol/kg s.c., challenge day 11, 24 hrs post-challenge, vehicle 0.902, p<0.0001",0.796±0.043 mm
same,Mean ear thickness of KLH-induced ear,"[2]; 10 nmol/kg s.c., challenge day 11, 48 hrs post-challenge, vehicle 0.876, p=0.0001",0.794±0.036 mm
same,Mean ear thickness of KLH-induced ear,"[2]; 30 nmol/kg s.c., challenge day 11, 24 hrs post-challenge, vehicle 0.902, p<0.0001",0.754±0.017 mm
same,Mean ear thickness of KLH-induced ear,"[2]; 30 nmol/kg s.c., challenge day 11, 48 hrs post-challenge, vehicle 0.876, p<0.0001",0.736±0.03 mm
same,Mean ear thickness of KLH-induced ear,"[2]; 100 nmol/kg s.c., challenge day 11, 24 hrs post-challenge, vehicle 0.902, p<0.0001",0.751±0.009 mm
same,Mean ear thickness of KLH-induced ear,"[2]; 100 nmol/kg s.c., challenge day 11, 48 hrs post-challenge, vehicle 0.876, p<0.0001",0.731±0.016 mm
same,Mean ear thickness of KLH-induced ear,[2]; [4],0.736 mm
same,Mean ear thickness of KLH-induced ear,"[2]; 24 hrs post-challenge, day 6 post-treatment, 1 nmol/kg SC",0.872 mm
same,Mean ear thickness of KLH-induced ear,"[2]; 24 hrs post-challenge, day 6 post-treatment, 3 nmol/kg SC",0.814 mm
same,Mean ear thickness of KLH-induced ear,[2]; [5],0.796 mm
same,Mean ear thickness of KLH-induced ear,"[2]; 24 hrs post-challenge, day 6 post-treatment, 30 nmol/kg SC",0.754 mm
same,Mean ear thickness of KLH-induced ear,[2]; [6],0.751 mm
same,Mean ear thickness of KLH-induced ear,[2]; [7],0.671 mm
same,Mean ear thickness of KLH-induced ear,"[2]; 48 hrs post-challenge, day 7 post-treatment, 1 nmol/kg SC",0.854 mm
same,Mean ear thickness of KLH-induced ear,"[2]; 48 hrs post-challenge, day 7 post-treatment, 3 nmol/kg SC",0.814 mm
same,Mean ear thickness of KLH-induced ear,[2]; [8],0.794 mm
same,Mean ear thickness of KLH-induced ear,"[2]; 48 hrs post-challenge, day 7 post-treatment, 30 nmol/kg SC",0.736 mm
same,Mean ear thickness of KLH-induced ear,[2]; [9],0.731 mm
same,minimal dose to obtain effect,"[2]; KLH-induced DTH model, s.c.",3 nmol/kg
same,Mean ear thickness of KLH-induced ear,"[2]; s.c. day 6, dose not given, challenge day 7, 24 hrs post-challenge, vehicle 0.849, p<0.0001",0.736±0.026 mm
same,Mean ear thickness of KLH-induced ear,"[2]; s.c. day 6, dose not given, challenge day 7, 48 hrs post-challenge, vehicle 0.777, p<0.0001",0.671±0.022 mm
same,pIC50,[3],9.37
